Laboratory results: article PMC10447463, “Data-mining unveils structure–property–activity correlation of viral infectivity enhancing self-assembling peptides” (Nature Communications, 2023)
Like-named read-outs stand apart in the source and are kept apart here.

How the values were obtained:
[1] = type: physicochemical; settings: for ThT Cat. / ThT-Fluorescence (categorical): ThT-active if fluorescence at least twice the control
Summary of the method: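 Fibrils (1 mg/mL solution) were mixed with 50 µM ThT in PBS for 15 min at RT, and fluorescence was read at λex 440/λem 488 nm against a PBS blank, as a triplicate mean ± SD. Zeta potential came from electrophoretic mobility (Smoluchowski) after 1 d aggregation at 1 mg/mL in PBS pH 7.4, diluted into 1 mM KCl.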

[2] = type: physicochemical; set-up: key to Fibril / Fibril Formation / TEM 2cat / Fibril: 1 = fibrils present; 0 non-fibrillar structures; settings: for Fibril / Fibril Formation: TEM, 1 mg/mL, uranyl acetate stain, qualitative
[3] = test system: HIV-1 infection of TZM-bl cells; assay: HIV-1 infectivity enhancement assay, β-galactosidase luminescence; type: cell-based
[4] = infectivity class (low / medium / high) of each library peptide; main list in c1-c6, same classes repeated in sub-lists of sequences containing the hydrophobicity/charge patterns P+,H0,P+,H0,P0,H0,P0; P+,H0,P0,H0,P0,H0,P0; P+,H0,P0,H0
[5] = log10 of HIV-1 infection of TZM-bl cells relative to EF-C; Fig S15 source data; asymmetric std dev errors
[6] = log10 of infection relative to EF-C, Figure 7B
[7] = n-fold infection vs virus only, relative to that of EF-C, 1.3 µM peptide
[8] = log10 of infection relative to EF-C, Figure 6C
[9] = ThT fluorescence relative to blank, blank = 42.1851851851852
[10] = Feb2021; figures match the 1.3 µM column
[11] = Feb2021; infectivity relative to virus only
[12] = Feb2021; log10 of infectivity relative to EF-C
[13] = Feb2021; n-fold infectivity relative to EF-C
[14] = infectivity class (low / medium / high) of the peptide in the sequence-pattern analysis, Fig. S22-A4; class limits not given
[15] = HIV-1 infection relative to EF-C; Fig 23 plot, panels A and B; mean of 3 values
[16] = HIV-1 infection relative to EF-C; Fig 23 plot, single data point, replicate 1
[17] = HIV-1 infection relative to EF-C; Fig 23 plot, single data point, replicate 2
[18] = HIV-1 infection relative to EF-C; Fig 23 plot, single data point, replicate 3
[19] = ThT fluorescence relative to blank (42.1851851851852 a.u.)
[20] = infectivity enhancement relative to EF-C (=1); Feb2021 run
[21] = infectivity n-fold relative to virus only; Feb2021 run
[22] = log10 of infectivity relative to EF-C; Feb2021 run
[23] = relative to blank 42.1851851851852 a.u.
[24] = Feb2021 run; infectivity n-fold relative to virus alone
[25] = Feb2021 run; log10 of infectivity relative to EF-C
[26] = Feb2021 run; n-fold infectivity relative to EF-C

NMWQKIKIQI [JG9]
Tht category (> 1.5 to blank = +) ([1]; FigS26): 1 (Tht category (> 1.5 to blank = +)) | TEM: 1= fibrils, 0= aggregates (micelle), 0.5 = aggregates and fibrils, -1 = nothing obersved, STD prep ([2]; FigS26): 1 | infectivity [3, 4]: medium | Log10 Inf. rel. to EF-C [3, 5]: -0.6877

IIIQGK [reference compound]
ThT Cat. / ThT-Fluorescence (categorical) [1]: 0 (ThT-inactive (N-Fold <2)) | Fibril / Fibril Formation [2]: 0 | Log10 Infection Rel EF-C [3, 6]: -1.21 | Inf. rel. EF-C [3, 7]: 0.06

KIWIWIW
ThT Cat. / ThT-Fluorescence (categorical) [1]: 1 (ThT. Cat is 1, if Rel. ThT >2) | Fibril / Fibril Formation [2]: 1 | Log10 Infection Rel EF-C [3, 8]: -0.2793 | Inf. rel. EF-C [3, 7]: 0.53

KIKIQINAWQ [JR3-II]
Tht category (> 1.5 to blank = +) ([1]; FigS26): 1 (Tht category (> 1.5 to blank = +)) | TEM: 1= fibrils, 0= aggregates (micelle), 0.5 = aggregates and fibrils, -1 = nothing obersved, STD prep ([2]; FigS26): 1 | infectivity [3, 4]: medium | Log10 Inf. rel. to EF-C [3, 5]: -0.2703

HHHHKAKAKAKAYYYY [TM10]
Tht rel to blank (42.1851851851852) [1, 9]: 1.39 | Tht category (> 1.5 to blank = +) ([1]; category 1/0): 0 (ThT-inactive (N-Fold <2)) | TEM: 1= fibrils, 0= aggregates (micelle), 0.5 = aggregates and fibrils, -1 = nothing obersved, STD prep [2]: 0 | Absolute Infectivity / RLU /s (Feb2021) [3, 10]: 203.3 RLU /s | n-fold to virus (Feb2021) [3, 11]: 0.5495 | Log10 of Rel to EFC (Feb2021) [3, 12]: -1.883 | Rel-to EFC (Feb-2021) [3, 13]: 0.01308 | infectivity [3, 14]: low | Log10 Inf. rel. to EF-C [3, 5]: -1.883

KAQCTLP
ThT Cat. / ThT-Fluorescence (categorical) [1]: 0 (ThT-inactive (N-Fold <2)) | Fibril / Fibril Formation [2]: 0 | Inf. rel. EF-C [3, 15]: 0.07031 | Inf. rel. EF-C [3, 16]: 0.07607 | Inf. rel. EF-C [3, 17]: 0.09243 | Inf. rel. EF-C [3, 18]: 0.04244 | Log10 Infection Rel EF-C [3, 8]: -1.153 | Inf. rel. EF-C [3, 7]: 0.07

VHDCVNITIK [reference compound]
ThT Cat. / ThT-Fluorescence (categorical) [1]: 1 (ThT. Cat is 1, if Rel. ThT >2) | Fibril / Fibril Formation [2]: 1 | Log10 Infection Rel EF-C [3, 6]: -0.27 | Inf. rel. EF-C [3, 7]: 0.53 | Abs Infection at 0.26µM ([3]; peptide 0.26 µM, mean of n = 3, Figure 7A): 46666.66667 | Abs Infection at 1.3 µM ([3]; peptide 1.3 µM, mean of n = 3, Figure 7A): 86910 | Abs Infection at 6.5 µM ([3]; peptide 6.5 µM, mean of n = 3, Figure 7A): 136243.3333

CRLRVGVS
ThT Cat. / ThT-Fluorescence (categorical) [1]: 0 (ThT-inactive (N-Fold <2)) | Fibril / Fibril Formation [2]: 0 | Inf. rel. EF-C [3, 15]: 0.04346 | Inf. rel. EF-C [3, 16]: 0.06547 | Inf. rel. EF-C [3, 17]: 0.03045 | Inf. rel. EF-C [3, 18]: 0.03448 | Log10 Infection Rel EF-C [3, 8]: -1.362 | Inf. rel. EF-C [3, 7]: 0.04

KIKIQINMWA [JR1]
Tht category (> 1.5 to blank = +) ([1]; FigS26): 0 (Tht category (> 1.5 to blank = +)) | TEM: 1= fibrils, 0= aggregates (micelle), 0.5 = aggregates and fibrils, -1 = nothing obersved, STD prep ([2]; FigS26): 1 | infectivity [3, 4]: medium | Log10 Inf. rel. to EF-C [3, 5]: -0.1642

CRFRFHFH
ThT Cat. / ThT-Fluorescence (categorical) [1]: 0 (ThT-inactive (N-Fold <2)) | Fibril / Fibril Formation [2]: 1 | Log10 Infection Rel EF-C [3, 8]: -0.2767 | Inf. rel. EF-C [3, 7]: 0.53

EIEIQINM [TM95 / (TM75)]
Tht rel to blank (42.1851851851852) [1, 19]: 1.473 | TEM: 1= fibrils, 0= aggregates (micelle), 0.5 = aggregates and fibrils, -1 = nothing obersved, STD prep [2]: 1 | infectivity [3, 14]: low | Rel-to EFC (Feb-2021) [3, 20]: 0.03629 | n-fold to virus (Feb2021) [3, 21]: 1.525 | Log10 Inf. rel. to EF-C [3, 5]: -1.44 | Log10 of Rel to EFC (Feb2021) [3, 22]: -1.44

KFKFQFFF [TG12]
Tht rel to blank (42.1851851851852) [1, 19]: 2.58 | Tht rel to blank (42.1851851851852) [1, 9]: 2.58 | Tht category (> 1.5 to blank = +) ([1]; category 1/0): 1 (ThT. Cat is 1, if Rel. ThT >2) | Tht rel to blank (42.1851851851852) [1, 23]: 2.58 | TEM: 1= fibrils, 0= aggregates (micelle), 0.5 = aggregates and fibrils, -1 = nothing obersved, STD prep [2]: 1 | Absolute Infectivity / RLU /s (Feb2021) [3, 10]: 8657 RLU /s | n-fold to virus (Feb2021) [3, 11]: 16.97 | Log10 of Rel to EFC (Feb2021) [3, 12]: -0.3937 | Rel-to EFC (Feb-2021) [3, 13]: 0.404 | n-fold to virus (Feb2021) [3, 24]: 16.97 | Log10 of Rel to EFC (Feb2021) [3, 25]: -0.3937 | Rel-to EFC (Feb-2021) [3, 26]: 0.404 | infectivity [3, 4]: medium | Rel-to EFC (Feb-2021) [3, 20]: 0.404 | n-fold to virus (Feb2021) [3, 21]: 16.97 | Log10 Inf. rel. to EF-C [3, 5]: -0.3936 | Log10 of Rel to EFC (Feb2021) [3, 22]: -0.3937

KIKIQINMAQ [JR2]
Tht category (> 1.5 to blank = +) ([1]; FigS26): 0 (Tht category (> 1.5 to blank = +)) | TEM: 1= fibrils, 0= aggregates (micelle), 0.5 = aggregates and fibrils, -1 = nothing obersved, STD prep ([2]; FigS26): 1 | infectivity [3, 4]: medium | Log10 Inf. rel. to EF-C [3, 5]: -0.6722

RGEKIKIQINM [CN18]
Tht rel to blank (42.1851851851852) [1, 9]: 3.423 | Tht category (> 1.5 to blank = +) ([1]; category 1/0): 1 (ThT. Cat is 1, if Rel. ThT >2) | TEM: 1= fibrils, 0= aggregates (micelle), 0.5 = aggregates and fibrils, -1 = nothing obersved, STD prep [2]: 1 | Absolute Infectivity / RLU /s (Feb2021) [3, 10]: 7838 RLU /s | n-fold to virus (Feb2021) [3, 11]: 10.23 | Log10 of Rel to EFC (Feb2021) [3, 12]: -0.6134 | Rel-to EFC (Feb-2021) [3, 13]: 0.2436 | infectivity [3, 4]: medium | Log10 Inf. rel. to EF-C [3, 5]: -0.6134

CKIKIWIW
ThT Cat. / ThT-Fluorescence (categorical) [1]: 1 (ThT. Cat is 1, if Rel. ThT >2) | Fibril / Fibril Formation [2]: 1 | Log10 Infection Rel EF-C [3, 8]: -0.06382 | Inf. rel. EF-C [3, 7]: 0.86

KFKFQFN [BL7]
Tht category (> 1.5 to blank = +) ([1]; category 1/0): 0 (ThT-inactive (N-Fold <2)) | Tht rel to blank (42.1851851851852) [1, 23]: 1.056 | TEM: 1= fibrils, 0= aggregates (micelle), 0.5 = aggregates and fibrils, -1 = nothing obersved, STD prep [2]: 1 | n-fold to virus (Feb2021) [3, 24]: 0.757 | Log10 of Rel to EFC (Feb2021) [3, 25]: -1.744 | Rel-to EFC (Feb-2021) [3, 26]: 0.01802 | infectivity [3, 4]: low | Log10 Inf. rel. to EF-C [3, 5]: -1.744

KAKQAANMWQ [JG6]
Tht rel to blank (42.1851851851852) [1, 9]: 1.208 | Tht category (> 1.5 to blank = +) ([1]; category 1/0): 0 (ThT-inactive (N-Fold <2)) | TEM: 1= fibrils, 0= aggregates (micelle), 0.5 = aggregates and fibrils, -1 = nothing obersved, STD prep [2]: 0.5 | Absolute Infectivity / RLU /s (Feb2021) [3, 10]: 343.3 RLU /s | n-fold to virus (Feb2021) [3, 11]: 1.2875 | Log10 of Rel to EFC (Feb2021) [3, 12]: -1.514 | Rel-to EFC (Feb-2021) [3, 13]: 0.03064 | infectivity [3, 4]: low | Log10 Inf. rel. to EF-C [3, 5]: -1.514
